Source: the supplement of paper PMC10627819

What was measured:
[1] = test system: S. pneumoniae D39V; assay: fitness (endpoint OD595 vs no drug) (fraction); higher = more growth
Method in brief: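 Bacterial fitness was scored as optical density at the stationary-phase transition relative to the robust mean of no-drug control wells. Scores are capped at 1. The growth data were OD595 readings every 30 min for 14 h at 37 °C, background-subtracted against the first reading, from 384-well plates inoculated at OD595 0.01 in TSB, LB Lennox or CY.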

[2] = test system: S. aureus Newman; assay: Bliss interaction score (quartile over a dose matrix) (fitness difference); higher = more antagonism (negative = synergy)
Method in brief: (§1)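 Fitness was OD595 at entry into stationary phase divided by the plate's robust no-drug mean and capped at 1; single-drug fitness was inferred from combination data. The Bliss score is observed minus expected (product) fitness, summarised by quartiles over technical, biological and donor/recipient replicates.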

[3] = test system: S. aureus DSM 20231; assay: as above
Method in brief: as §1

[4] = test system: S. pneumoniae D39V; assay: as above
Method in brief: as §1

[5] = test system: B. subtilis 168; assay: as above
Method in brief: as §1
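Throughout, for Bliss interaction score (quartile over a dose matrix): first quartile when negative (synergy) and third quartile when positive (antagonism).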

C[C@@H](O)[C@H]1C(=O)N2C(C(=O)O)=C(SCCNC=N)C[C@H]12 [Imipenem] + CN(N=O)C(=O)N[C@@H](C=O)[C@@H](O)[C@H](O)[C@H](O)CO [Streptozotocin]
fitness, [1], one replicate
Conditions | first compound 0.005 µg/mL | first compound 0.01 µg/mL | first compound 0.02 µg/mL
partner 1.2 µg/mL | 0.986 | 0.949 | ≥ 1
partner 2.4 µg/mL | 0.983 | 0.931 | 0.97
partner 4.8 µg/mL | 0.917 | 0.86 | 0.94

fitness, [1]
Conditions | first compound 0.0065 µg/mL | first compound 0.013 µg/mL | first compound 0.026 µg/mL
partner 1.2 µg/mL | 0.966 | 0.908 | 0.908
partner 2.4 µg/mL | 0.942 | 0.884 | 0.824
partner 4.8 µg/mL | 0.968 | 0.945 | 0.966

Conditions | Bliss interaction score
[2] | -0.0113
[3] | -0.0317
[4] | 0.0577
[5] | -0.138

O=C1CN(/N=C/c2ccc([N+](=O)[O-])o2)C(=O)N1 [Nitrofurantoin] + CN[C@@H]1[C@H](O[C@H]2[C@H](O[C@H]3[C@H](O)[C@@H](O)[C@H](N=C(N)N)[C@@H](O)[C@@H]3N=C(N)N)O[C@@H](C)[C@]2(O)C=O)O[C@@H](CO)[C@H](O)[C@H]1O [Streptomycin]
fitness, [1]
Conditions | first compound 1.285 µg/mL | first compound 2 µg/mL | first compound 2.57 µg/mL | first compound 4 µg/mL | first compound 8 µg/mL
partner 2 µg/mL | 0.956 | – | 0.938 | – | –
partner 4 µg/mL | 0.953 | 0.956 | 0.921 | 0.936 | 0.768
partner 8 µg/mL | 0.927 | 0.884 | 0.918 | 0.887 | 0.743

fitness, [1], one replicate
Conditions | first compound 2 µg/mL | first compound 4 µg/mL | first compound 5.14 µg/mL | first compound 8 µg/mL
partner 2 µg/mL | 0.965 | 0.948 | 0.86 | 0.76
partner 4 µg/mL | – | – | 0.8 | –
partner 8 µg/mL | – | – | 0.809 | –
partner 16 µg/mL | 0.743 | 0.753 | – | 0.585

Conditions | Bliss interaction score
[2] | -0.0496
[3] | -0.0532
[4] | 0.0583
[5] | -0.0807

C[C@@H](O)[C@H]1C(=O)N2C(C(=O)O)=C(SCCNC=N)C[C@H]12 [Imipenem] + CN[C@@H]1[C@H](O[C@H]2[C@H](O[C@H]3[C@H](O)[C@@H](O)[C@H](N=C(N)N)[C@@H](O)[C@@H]3N=C(N)N)O[C@@H](C)[C@]2(O)C=O)O[C@@H](CO)[C@H](O)[C@H]1O [Streptomycin]
fitness, [1], one replicate
Conditions | first compound 0.005 µg/mL | first compound 0.01 µg/mL | first compound 0.02 µg/mL
partner 2 µg/mL | ≥ 1 | 0.955 | 0.988
partner 16 µg/mL | 0.779 | 0.813 | 0.786

fitness, [1]
Conditions | first compound 0.005 µg/mL | first compound 0.0065 µg/mL | first compound 0.01 µg/mL | first compound 0.013 µg/mL | first compound 0.02 µg/mL | first compound 0.026 µg/mL
partner 2 µg/mL | – | 0.959 | – | 0.868 | – | 0.847
partner 4 µg/mL | 0.965 | 0.923 | 0.986 | 0.903 | 0.97 | 0.886
partner 8 µg/mL | 0.837 | 0.916 | 0.863 | 0.907 | 0.875 | 0.85

Conditions | Bliss interaction score
[2] | 0.076
[3] | -0.0295
[4] | 0.0603
[5] | 0.1
